Literature values in patent publication US8512751B2, “Pharmaceutical compositions for sleep disorders” (Collegium Pharmaceutical, Inc., priority 2004, dated 2013).
Where a name gives a salt, the structure may show the parent alone.

Experiments:
[1] = water and normal saline
sleep apnea [2] = details: for effect in individuals with sleep apnea: patients, literature
serotonin uptake = details: animal models
sleep apnea [3] = details: animal model of sleep apnea
nocturnal sleep = details: healthy adults; 20, 40 and 60 mg
[4] = man, single oral 40-mg dose
[5] = in vivo

Cc1nccn1CC1CCc2c(c3ccccc3n2C)C1=O (racemic) [Ondansetron HCl dihydrate, (±) 1,2,3,9-tetrahydro-9-methyl-3-[(2-methyl-1H-imidazol-1-yl)methyl]-4H-carbazol-4-one, monohydrochloride, dihydrate]
solubility [1]: soluble in water and normal saline

Cc1nccn1CC1CCc2c(c3ccccc3n2C)C1=O (stereo not drawn) [Ondansetron]
Bioavailability, effect of antacids (antacids): unaffected
Mean bioavailability (healthy subjects, single 8-mg tablet): approximately 56%
radiolabeled dose recovered from the urine as the parent compound (humans): approximately 5%
AUC from a 16-mg tablet greater than predicted from an 8-mg tablet dose (oral tablets): 24%
half-life (plasma, humans): 3 to 5 h
Bioavailability, effect of food (presence of food): slightly enhanced
extent and rate of absorption, gender difference (single dose): greater in women than men

CNCCCC1c2ccccc2C=Cc2ccccc21 [Protriptyline]
effect in individuals with sleep apnea (sleep apnea [2]): variable results and frequent and significant side effects

NCC[C@@H](Oc1ccc(C(F)(F)F)cc1)c1ccccc1 [R-norfluoxetine]
inhibition of serotonin uptake, activity relative to fluoxetine (serotonin uptake): significantly less potent than the parent drug

NCC[C@H](Oc1ccc(C(F)(F)F)cc1)c1ccccc1 [S-norfluoxetine]
inhibition of serotonin uptake, activity relative to fluoxetine (serotonin uptake): essentially equivalent to R- or S-fluoxetine

CC(=O)Nc1nnc(S(N)(=O)=O)s1 [acetazolamide]
effect in individuals with sleep apnea (sleep apnea [2]): produced variable improvement in individuals with primary central apneas but caused an increase in obstructive apneas

Nc1ncnc2c1ncn2[C@@H]1O[C@H](CO)[C@@H](O)[C@H]1O [adenosine]
reduction of apnea (sleep apnea [3]): somewhat effective in reducing apnea

CCN1CC(CCN2CCOCC2)C(c2ccccc2)(c2ccccc2)C1=O (stereo not drawn) [doxapram]
effect in individuals with sleep apnea (sleep apnea [2]): decrease the length of apneas but did not alter the average arterial oxygen saturation

CNCCC(Oc1ccc(C(F)(F)F)cc1)c1ccccc1 (stereo not drawn) [fluoxetine]
effects on nocturnal sleep (nocturnal sleep): reduced the total sleep time and the duration of rapid eye movement (REM) sleep and increased awake activity and stage 1 (drowsy) sleep during the night
number of eye movements, EOG and EMG activity on treatment (EOG and EMG activity; REM, stages 1, 2, and slow-wave sleep): significantly increases the number of eye movements
patients with increased EOG and EMG activity on treatment in every sleep stage (EOG and EMG activity; in vivo): Thirty-four
peak plasma concentrations [4]: 15 to 55 ng/mL
time of peak plasma concentrations [4]: 6 to 8 h
individuals with OSAS with measurable benefits (sleep apnea [2]; initial evidence): approximately 50%

CC1(C)Cc2cc(Cl)cc(C(=O)NC3CC4CCC(C3)[N+]4(C)C)c2O1 (stereo not drawn) [methylated zatosetron]
ability to cross the blood-brain barrier [5]: lack the ability to cross the blood-brain barrier

C=CCN1CC[C@]23c4c5ccc(O)c4O[C@H]2C(=O)CC[C@@]3(O)[C@H]1C5 [naloxone]
effect in individuals with sleep apnea (sleep apnea [2]): only slightly helpful

Cn1c(=O)c2[nH]cnc2n(C)c1=O [theophylline]
effect in individuals with sleep apnea (sleep apnea [2]): may benefit patients with central apnea but appears to be of no use in adult patients with obstructive apnea

medroxyprogesterone
effect in individuals with sleep apnea (sleep apnea [2]): no consistent benefit in OSAS
